Where two headings read alike, the source gives them in different places. Numbered stars: 1 amine (or outer) side, 2 acyl side, 3 side chain; on linkers, the order of the positions; unused ones are H or OH. Bridge positions count the residues as written; N and C are the ends. Square brackets hold non-standard residues; d marks the D form. Peptide text beside a SMILES is read from it. * marks the point of attachment. X1 = CC[C@H](C)[C@@H](N[*:1])[C@@H](O)CC(=O)O[C@H](C(=O)[C@H](C)C(=O)[*:2])C(C)C; X3 = CC[C@H](C)[C@H](N[*:1])[C@@H](O)CC(=O)O[C@H](C(=O)[C@H](C)C(=O)[*:2])C(C)C; NMeY = CN[C@@H](Cc1ccc(O)cc1)C(=O)O; aThr = C[C@H](O)[C@H](N)C(=O)O; NMeL = CN[C@@H](CC(C)C)C(=O)O; dNMeL = CN[C@H](CC(C)C)C(=O)O; pGlu = O=C1CC[C@@H](C(=O)O)N1; Isobutyryl = CC(C)C(=O)*; Pyruvoyl = CC(=O)C(=O)*; Lac = C[C@H](O)C(=O)O; Propionyl = CCC(=O)*; For = O=C*
Experiments:
[1] = test system: concanavalin A-induced lymphoblasts (Con A splenocytes); experiment: Lymphoblast viability (LbV) assay; settings: Con A-stimulated splenocytes (lymphoblasts), MTT
[2] = test system: murine splenocytes (Balb/c and C57B1/6); experiment: Two-way mixed lymphocyte reaction (MLR) assay;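 also: proliferation read as tritiated thymidine incorporation into newly made DNA after an overnight pulse, expressed as percent of control activity, IC50 interpolated per compound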
[3] = test system: Balb/c splenocytes (resting lymphocytes); experiment: Lymphocyte viability (LcV) assay; format: cell-based, murine; settings: unstimulated Balb/c splenocytes, MTT
Description: Forty two (42) didemnin compounds (see Table 1) were evaluated for cytotoxicity to one of the lymphocyte populations in the MLR (i.e., Balb/c splenocytes). The purpose of the lymphocyte viability assay (LcV) is to measure metabolic activity in lymphocytes after they have been exposed to the compounds for the duration of an under conditions equivalent to the MLR. The inverse of the data yields cytotoxicity information about the compounds on murine lymphocytes. The rationale of using resting cells, in this case unstimulated lymphocytes, to measure cytotoxicity has a strategic importance. In the MLR the heterogenous cell populations are predominantly resting cells when the assay begins.
Test compounds were prepared in two sets as described above. Splenocytes were prepared as described previously from one murine strain (Balb/c), and a volume of 200 μL of the cell suspension was added to one set of test compounds and control wells.
Assay plates were incubated as in the MLR and then pulsed overnight 75 μL per well MTT-thiazolyl blue solution (150 μg). The plates were decanted and the resulting insoluble formazan crystals were dissolved in 200 μL of isopropyl alcohol. Absorbance at 570 nm was measured.
The LcV data were calculated as a percentage of basal metabolic activity, or percent viability, relative to BALB/c control, and an LC50 value was interpolated for each test compound.

[4] = Balb/c + C57B1/6 splenocytes, 96 h, [3H]thymidine
[5] = read-out: two-way mixed lymphocyte reaction (MLR) suppression MLR, IC50, Balb/c + C57B1/6 splenocytes, 96 h, [3H]thymidine

| Compound | cytotoxicity to lymphocytes LbV, LC50 [1] [nM] | two-way mixed lymphocyte reaction (MLR) suppression MLR, IC50 [2, 4] [ng/mL] | IC50 [2, 5] [nM] | cytoxicity to lymphocytes LcV, LC50 [3] [nM] | cytoxicity to lymphocytes LcV, LC50 ([3]; highest concentration 10 μg/mL) [µg/mL] | IC50 ([2]; read-out: MLR IC50) [nM] |
| --- | --- | --- | --- | --- | --- | --- |
| CC[C@H](C)[C@@H]1NC(=O)[C@@H](NC(=O)[C@H](CC(C)C)N(C)C=O)[C@H](C)OC(=O)[C@H](Cc2ccc(OC)cc2)N(C)C(=O)[C@@H]2CCCN2C(=O)[C@H](CC(C)C)NC(=O)[C@@H](C)C(=O)[C@H](C(C)C)OC(=O)C[C@@H]1O [Compound 26, Didemnin G] (For-[NMeL][aThr][X3]LP[NMeY](Me); ester 2-C) | 1.1 | 0.70 | 0.72 | > 10000 | > 10 |  |
| CC[C@H](C)[C@H]1NC(=O)[C@@H](NC(=O)[C@@H](CC(C)C)N(C)C(=O)[C@@H](N)CC(C)C)[C@@H](C)OC(=O)[C@H](Cc2ccc(OC)cc2)N(C)C(=O)[C@@H]2CCCN2C(=O)[C@H](CC(C)C)NC(=O)[C@@H](C)C(=O)[C@H](C(C)C)OC(=O)C[C@@H]1O [Compound 27, N-(L-Leu)Didemnin A] (H-L[dNMeL]T[X1]LP[NMeY](Me); ester 3-C) | 3.8 | 0.78 | 0.74 | > 9500 | > 10 |  |
| CC[C@H](C)[C@H]1NC(=O)[C@@H](NC(=O)[C@@H](CC(C)C)N(C)C(=O)[C@@H]2CCCN2)[C@@H](C)OC(=O)[C@H](Cc2ccc(OC)cc2)N(C)C(=O)[C@@H]2CCCN2C(=O)[C@H](CC(C)C)NC(=O)[C@@H](C)C(=O)[C@H](C(C)C)OC(=O)C[C@@H]1O [Compound 28, N^α -(L-Pro)Didemnin A] (H-P[dNMeL]T[X1]LP[NMeY](Me); ester 3-C) | 5.1 | 1.00 | 0.96 | > 9600 | > 10 |  |
| CC[C@H](C)[C@H]1NC(=O)[C@@H](NC(=O)[C@@H](CC(C)C)N(C)C(=O)[C@H]2CCCN2)[C@@H](C)OC(=O)[C@H](Cc2ccc(OC)cc2)N(C)C(=O)[C@@H]2CCCN2C(=O)[C@H](CC(C)C)NC(=O)[C@@H](C)C(=O)[C@H](C(C)C)OC(=O)C[C@@H]1O [Compound 29, N^α -(D-Pro)-Didemnin A] (H-[dP][dNMeL]T[X1]LP[NMeY](Me); ester 3-C) | 22 | 12.2 | 11.7 | > 9600 | > 10 |  |
| CC[C@H](C)[C@H]1NC(=O)[C@@H](NC(=O)[C@@H](CC(C)C)N(C)C(=O)[C@@H]2CCCN2C(=O)C(C)=O)[C@@H](C)OC(=O)[C@H](Cc2ccc(OC)cc2)N(C)C(=O)[C@@H]2CCCN2C(=O)[C@H](CC(C)C)NC(=O)[C@@H](C)C(=O)[C@H](C(C)C)OC(=O)C[C@@H]1O [Compound 30, dehydrodidemnin B] (Pyruvoyl-P[dNMeL]T[X1]LP[NMeY](Me); ester 3-C) | 0.079 | 0.43 | 0.38 | 2600 | 2.90 |  |
| CC[C@H](C)[C@H]1NC(=O)[C@@H](NC(=O)[C@@H](CC(C)C)N(C)C(=O)[C@@H]2CCCN2C(C)=O)[C@@H](C)OC(=O)[C@H](Cc2ccc(OC)cc2)N(C)C(=O)[C@@H]2CCCN2C(=O)[C@H](CC(C)C)NC(=O)[C@@H](C)C(=O)[C@H](C(C)C)OC(=O)C[C@@H]1O [Compound 31, [Acetyl^9]Didemnin B] (Ac-P[dNMeL]T[X1]LP[NMeY](Me); ester 3-C) | 0.16 | 0.22 | 0.21 | 2800 | 3.10 |  |
| CCC(=O)N1CCC[C@H]1C(=O)N(C)[C@H](CC(C)C)C(=O)N[C@@H]1C(=O)N[C@H]([C@@H](C)CC)[C@@H](O)CC(=O)O[C@@H](C(C)C)C(=O)[C@H](C)C(=O)N[C@@H](CC(C)C)C(=O)N2CCC[C@H]2C(=O)N(C)[C@@H](Cc2ccc(OC)cc2)C(=O)O[C@@H]1C [Compound 32, [Propionyl^9]Didemnin B] (Propionyl-P[dNMeL]T[X1]LP[NMeY](Me); ester 3-C) | 0.184 | 0.26 | 0.23 | 1980 | 2.20 |  |
| CC[C@H](C)[C@H]1NC(=O)[C@@H](NC(=O)[C@@H](CC(C)C)N(C)C(=O)[C@@H]2CCCN2C(=O)C(C)C)[C@@H](C)OC(=O)[C@H](Cc2ccc(OC)cc2)N(C)C(=O)[C@@H]2CCCN2C(=O)[C@H](CC(C)C)NC(=O)[C@@H](C)C(=O)[C@H](C(C)C)OC(=O)C[C@@H]1O [Compound 33, [Isobutyryl^9]Didemnin B] (Isobutyryl-P[dNMeL]T[X1]LP[NMeY](Me); ester 3-C) | 0.204 | 0.041 | 0.037 | 2240 | 2.40 |  |
| CC[C@H](C)[C@H]1NC(=O)[C@@H](NC(=O)[C@@H](CC(C)C)N(C)C(=O)[C@H]2CCCN2C(=O)C(C)C)[C@@H](C)OC(=O)[C@H](Cc2ccc(OC)cc2)N(C)C(=O)[C@@H]2CCCN2C(=O)[C@H](CC(C)C)NC(=O)[C@@H](C)C(=O)[C@H](C(C)C)OC(=O)C[C@@H]1O [Compound 34, [Isobutyryl^9, D-Pro^8] Didemnin B] (Isobutyryl-[dP][dNMeL]T[X1]LP[NMeY](Me); ester 3-C) | 4.81 | 0.67 | 0.6 | 5600 | 6.20 |  |
| CC[C@H](C)[C@H]1NC(=O)[C@@H](NC(=O)[C@@H](CC(C)C)N(C)C(=O)[C@H](C)NC(=O)[C@H](C)O)[C@@H](C)OC(=O)[C@H](Cc2ccc(OC)cc2)N(C)C(=O)[C@@H]2CCCN2C(=O)[C@H](CC(C)C)NC(=O)[C@@H](C)C(=O)[C@H](C(C)C)OC(=O)C[C@@H]1O [Compound 35, [L-Ala^8]Didemnin B] | 0.717 | 0.33 | 0.31 | > 9200 | > 10 |  |
| CC[C@H](C)[C@H]1NC(=O)[C@@H](NC(=O)[C@@H](CC(C)C)N(C)C(=O)[C@@H]2CCCN2C(=O)[C@H](C)OC(=O)[C@H](CCC(N)=O)NC(=O)[C@H](CCC(N)=O)NC(=O)[C@@H]2CCC(=O)N2)[C@@H](C)OC(=O)[C@H](Cc2ccc(OC)cc2)N(C)C(=O)[C@@H]2CCCN2C(=O)[C@H](CC(C)C)NC(=O)[C@@H](C)C(=O)[C@H](C(C)C)OC(=O)C[C@@H]1O [Compound 39, Didemnin E] ([pGlu]QQ[Lac]P[dNMeL]T[X1]LP[NMeY](Me); ester 7-C) | 1.4 | 0.012 | 0.0084 | > 6770 | > 10 | 0.0084 |
| CC[C@H](C)[C@H]1NC(=O)[C@@H](NC(=O)[C@@H](CC(C)C)N(C)C(=O)[C@@H]2CCCN2C(=O)[C@H](C)OC(=O)[C@H](CCC(N)=O)NC(=O)[C@H](CCC(N)=O)NC(=O)[C@H](CCC(N)=O)NC(=O)[C@@H]2CCC(=O)N2)[C@@H](C)OC(=O)[C@H](Cc2ccc(OC)cc2)N(C)C(=O)[C@@H]2CCCN2C(=O)[C@H](CC(C)C)NC(=O)[C@@H](C)C(=O)[C@H](C(C)C)OC(=O)C[C@@H]1O [Compound 40, Didemnin D] ([pGlu]QQQ[Lac]P[dNMeL]T[X1]LP[NMeY](Me); ester 8-C) | 0.85 | 0.20 | 0.12 | > 6220 | > 10 |  |
| Didemnin X [Compound 41] | 3.1 | 0.83 | 0.5 | 6010 | 10.0 |  |
